Target: T1, cloned human D4 receptors (Homo sapiens, UniProt P21917)
T1 construct: purchased Receptor Biology, Maryland, USA; host or cells: transfected Chinese Hamster Ovary (CHO) cells (membrane preparation)
T1 sequence (P21917 1-419): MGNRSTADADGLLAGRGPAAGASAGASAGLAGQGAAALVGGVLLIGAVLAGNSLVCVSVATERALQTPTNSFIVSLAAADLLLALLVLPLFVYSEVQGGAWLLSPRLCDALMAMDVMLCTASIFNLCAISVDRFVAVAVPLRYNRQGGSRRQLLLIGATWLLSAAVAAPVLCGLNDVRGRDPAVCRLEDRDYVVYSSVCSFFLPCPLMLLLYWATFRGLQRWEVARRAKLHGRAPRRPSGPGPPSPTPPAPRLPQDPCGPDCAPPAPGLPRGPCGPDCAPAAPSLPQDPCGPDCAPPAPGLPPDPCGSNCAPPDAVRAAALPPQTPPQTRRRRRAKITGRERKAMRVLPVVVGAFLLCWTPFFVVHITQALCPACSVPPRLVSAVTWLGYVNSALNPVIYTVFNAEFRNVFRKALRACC
Assay: In vitro radioligand binding affinity for dopamine D4 receptor (3H-spiperone competition, transfected CHO cell membranes)
Details: membranes of transfected CHO cells expressing cloned human D4 receptors, read-out: pIC50 (-log IC50), dopamine D4 receptor (converted)
Description: In vitro binding affinity for dopamine D4 receptor
The interaction of the compounds of formula (I) with the dopamine D4 receptors was assessed in in vitro radioligand binding experiments.
A low concentration of ^3 H-spiperone with a high binding affinity for the dopamine D4 receptor was incubated with a sample of a membrane preparation of transfected Chinese Hamster Ovary (CHO) cells which express cloned human D4 receptors (Receptor Biology, Maryland, USA) in a buffered medium. When equilibrium of binding was reached, the receptor bound radioactivity was separated from the non-bound radioactivity, and the receptor bound activity was counted. The interaction of the test compounds, added to the incubation mixture in various concentrations, with the dopamine D4 receptor was assessed in competition binding experiments as described by Schotte et al. (Psychopharmacology, 1996, 124, 57-73).

Row | Structure (SMILES) | IC50
1 | Clc1ccc(N2CCN(CCNc3nc4ccccc4s3)CC2)cc1 [Compound 134] | ≤ 100 nM
2 | COc1ccc(N2CCN(CCNc3nc4ccccc4s3)CC2)cc1 [Compound 21] | ≤ 100 nM
3 | COc1ccc(N2CCN(CCNc3nc4ccccc4s3)CC2)cc1OC [Compound 23] | ≤ 100 nM
4 | c1ccc(N2CCN(CCNc3nc4ccccc4s3)CC2)cc1 [Compound 6, N-[2-(4-phenyl-1-piperazinyl)ethyl]-2-benzothiazolamine] | ≤ 100 nM
5 | Fc1ccc(N2CCN(CCCNc3nc4ccccc4s3)CC2)cc1 [Compound 25] | ≤ 100 nM
6 | c1ccc2c(N3CCN(CCNc4nc5ccccc5s4)CC3)cccc2c1 [Compound 119] | ≤ 100 nM

The next lines start with the values.

Row | IC50 | Structure (SMILES)
7 | ≤ 100 nM | Clc1ccc(N2CCN(CCN(Cc3ccccc3)c3nc4ccccc4s3)CC2)cc1Cl [Compound 106]
8 | ≤ 100 nM | CN(CCCN1CCN(c2ccc(Cl)c(Cl)c2)CC1)c1nc2ccccc2s1 [Compound 100]
9 | ≤ 100 nM | CN(CCN1CCN(c2ccc(Cl)c(Cl)c2)CC1)c1nc2ccccc2s1 [Compound 101]

Source: patent US6224849A, “Alkylaminobenzothiazole and-benzoxazole derivatives” (Janssen Pharmaceutica N.V., priority 1996, dated 2001)
